Laboratory results: patent publication US6914045B2, “Glycopeptide antibiotics” (Wyeth Holdings Corporation, priority 2001, dated 2005)
In brackets after ≈: the same amount, converted by molar mass.

Experiments:
Assay in all cases: in vitro antibacterial evaluation, MIC by broth dilution
Assay type in all cases: cell-based
Enterococcus sp. = conditions: broth dilution, 18 hours at 35° C.
Summary of the method: (§1)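 Broth dilution per NCCLS M7-A2 in Mueller-Hinton II medium, inoculum 5×10^5 CFU/mL, antibiotic range 64-0.06 μg/mL. MIC taken as lowest concentration inhibiting growth; Gram-positive panel includes recent clinical isolates resistant to methicillin, penicillin and/or vancomycin.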

Staphylococcus sp. = conditions: broth dilution, 18 hours at 35° C.
Summary of the method: as §1

Streptococcus sp. = conditions: broth dilution, 18 hours at 35° C.
Summary of the method: as §1

Escherichia coli = conditions: 18 hours at 35° C.

CC(c1ccccc1)C1NC(=O)CNC(=O)C(CO)NC(=O)C(C(O)C2CNC(=N)N2C2OC(CO)C(O)C(O)C2O)NC(=O)C(C(O)C2CNC(=N)N2)NC(=O)C(Cc2ccc(OC3OC(CO)C(OC4OC5COC(C)(c6ccc(F)cc6)OC5C(O)C4O)C(O)C3O)cc2)NC1=O (stereo not shown) [Example 216]
MIC Enterococcus avium (GC 4558) (Enterococcus sp.): 4 µg/mL (≈ 2.83 µM)
MIC Enterococcus faecalis (ATCC 29212) (Enterococcus sp.): 4 µg/mL (≈ 2.83 µM)
MIC Enterococcus faecalis (GC 2242) (Enterococcus sp.): 4 µg/mL (≈ 2.83 µM)
MIC Enterococcus faecalis (GC 2691) (Enterococcus sp.): 4 µg/mL (≈ 2.83 µM)
MIC Enterococcus faecalis (GC 3059) (Enterococcus sp.): 4 µg/mL (≈ 2.83 µM)
MIC Enterococcus faecalis (GC 4552) (Enterococcus sp.): 4 µg/mL (≈ 2.83 µM)
MIC Enterococcus faecalis (GC 4553) (Enterococcus sp.): 4 µg/mL (≈ 2.83 µM)
MIC Enterococcus faecalis (GC 4554) (Enterococcus sp.): 4 µg/mL (≈ 2.83 µM)
MIC Enterococcus faecalis (GC 6189) (Enterococcus sp.): 4 µg/mL (≈ 2.83 µM)
MIC Enterococcus faecium (GC 2243) (Enterococcus sp.): 4 µg/mL (≈ 2.83 µM)
MIC Enterococcus faecium (GC 4556) (Enterococcus sp.): 4 µg/mL (≈ 2.83 µM)
MIC Enterococcus faecium (GC 4557) (Enterococcus sp.): 4 µg/mL (≈ 2.83 µM)
MIC Enterococcus faecalis (ATCC 29212) (Enterococcus sp.; inoculum 5×10^5 CFU/mL, strain ATCC 29212): 4 µg/mL (≈ 2.83 µM)
MIC Enterococcus faecalis (GC 2242) (Enterococcus sp.; inoculum 5×10^5 CFU/mL, strain GC 2242): 4 µg/mL (≈ 2.83 µM)
MIC Enterococcus faecium (GC 2243) (Enterococcus sp.; inoculum 5×10^5 CFU/mL, strain GC 2243): 4 µg/mL (≈ 2.83 µM)
MIC Enterococcus faecalis (GC 2691) (Enterococcus sp.; inoculum 5×10^5 CFU/mL, strain GC 2691): 4 µg/mL (≈ 2.83 µM)
MIC Enterococcus faecalis (GC 3059) (Enterococcus sp.; inoculum 5×10^5 CFU/mL, strain GC 3059): 4 µg/mL (≈ 2.83 µM)
MIC Enterococcus faecalis (GC 4552) (Enterococcus sp.; inoculum 5×10^5 CFU/mL, strain GC 4552): 4 µg/mL (≈ 2.83 µM)
MIC Enterococcus faecalis (GC 4553) (Enterococcus sp.; inoculum 5×10^5 CFU/mL, strain GC 4553): 4 µg/mL (≈ 2.83 µM)
MIC Enterococcus faecalis (GC 4554) (Enterococcus sp.; inoculum 5×10^5 CFU/mL, strain GC 4554): 4 µg/mL (≈ 2.83 µM)
MIC Enterococcus faecium (GC 4556) (Enterococcus sp.; inoculum 5×10^5 CFU/mL, strain GC 4556): 4 µg/mL (≈ 2.83 µM)
MIC Enterococcus faecium (GC 4557) (Enterococcus sp.; inoculum 5×10^5 CFU/mL, strain GC 4557): 4 µg/mL (≈ 2.83 µM)
MIC Enterococcus avium (GC 4558) (Enterococcus sp.; inoculum 5×10^5 CFU/mL, strain GC 4558): 4 µg/mL (≈ 2.83 µM)
MIC Enterococcus faecalis (GC 6189) (Enterococcus sp.; inoculum 5×10^5 CFU/mL, strain GC 6189): 4 µg/mL (≈ 2.83 µM)
MIC Staphylococcus aureus (ATCC 29213) (Staphylococcus sp.; strain ATCC 29213): 2 µg/mL (≈ 1.41 µM)
MIC Staphylococcus aureus (GC 1131) (Staphylococcus sp.; strain GC 1131): 2 µg/mL (≈ 1.41 µM)
MIC Staphylococcus aureus (GC 3051) (Staphylococcus sp.; strain GC 3051): 2 µg/mL (≈ 1.41 µM)
MIC Staphylococcus aureus (GC 3053) (Staphylococcus sp.; strain GC 3053): 2 µg/mL (≈ 1.41 µM)
MIC Staphylococcus aureus (GC 4541) (Staphylococcus sp.; strain GC 4541): 1 µg/mL (≈ 0.707 µM)
MIC Staphylococcus aureus (GC 4542) (Staphylococcus sp.; strain GC 4542): 1 µg/mL (≈ 0.707 µM)
MIC Staphylococcus aureus-SMITH (GC 4543) (Staphylococcus sp.; strain GC 4543): 2 µg/mL (≈ 1.41 µM)
MIC Staphylococcus aureus (GC 4544) (Staphylococcus sp.; strain GC 4544): 2 µg/mL (≈ 1.41 µM)
MIC Staphylococcus aureus (GC 4545) (Staphylococcus sp.; strain GC 4545): 1 µg/mL (≈ 0.707 µM)
MIC Staphylococcus haemolyticus (GC 4546) (Staphylococcus sp.; strain GC 4546): 1 µg/mL (≈ 0.707 µM)
MIC Coagulase Negative Staphylococcus (GC 4547) (Staphylococcus sp.; strain GC 4547): 2 µg/mL (≈ 1.41 µM)
MIC Coagulase Negative Staphylococcus (GC 4548) (Staphylococcus sp.; strain GC 4548): 1 µg/mL (≈ 0.707 µM)
MIC Coagulase Negative Staphylococcus (GC 4549) (Staphylococcus sp.; strain GC 4549): 1 µg/mL (≈ 0.707 µM)
MIC Coagulase Negative Staphylococcus (GC 4551) (Staphylococcus sp.; strain GC 4551): 2 µg/mL (≈ 1.41 µM)
MIC Coagulase Negative Staphylococcus (GC 6257) (Staphylococcus sp.; strain GC 6257): 1 µg/mL (≈ 0.707 µM)
MIC Streptococcus agalactiae (GC 4564) (Streptococcus sp.): 0.5 µg/mL (≈ 0.353 µM)
MIC Streptococcus pneumoniae (ATCC 6301) (Streptococcus sp.): 0.25 µg/mL (≈ 0.177 µM)
MIC Streptococcus pneumoniae (GC 1894) (Streptococcus sp.): <0.06 µg/mL
MIC Streptococcus pneumoniae (GC 4565) (Streptococcus sp.): 0.25 µg/mL (≈ 0.177 µM)
MIC Streptococcus pyogenes (GC 4563) (Streptococcus sp.): 0.5 µg/mL (≈ 0.353 µM)
MIC Streptococcus pneumoniae (ATCC 6301) (Streptococcus sp.; inoculum 5×10^5 CFU/mL, strain ATCC 6301): 0.25 µg/mL (≈ 0.177 µM)
MIC Streptococcus pneumoniae (GC 1894) (Streptococcus sp.; inoculum 5×10^5 CFU/mL, strain GC 1894): <0.06 µg/mL
MIC Streptococcus pyogenes (GC 4563) (Streptococcus sp.; inoculum 5×10^5 CFU/mL, strain GC 4563): 0.5 µg/mL (≈ 0.353 µM)
MIC Streptococcus agalactiae (GC 4564) (Streptococcus sp.; inoculum 5×10^5 CFU/mL, strain GC 4564): 0.5 µg/mL (≈ 0.353 µM)
MIC Streptococcus pneumoniae (GC 4565) (Streptococcus sp.; inoculum 5×10^5 CFU/mL, strain GC 4565): 0.25 µg/mL (≈ 0.177 µM)
MIC Escherichia coli (ATCC 25922) (Escherichia coli): 32 µg/mL (≈ 22.6 µM)
MIC Escherichia coli (GC 4559) (Escherichia coli): 16 µg/mL (≈ 11.3 µM)
MIC Escherichia coli (GC 4560) (Escherichia coli): 2 µg/mL (≈ 1.41 µM)
